“Also recorded” adds a separate entry of the source.
Legend:
Male Balb-c mice = test: Hot plate test, latency of the nociceptive reaction to heat; assay type: in vivo; conditions: for antinociceptive activity (latency to heat): entire period
Wistar rats = conditions: high doses of fluoxetine; Omar et al. Pharmacol. Res. 49 (2004) 119-131; cited from earlier work
[1] = treated orally for 5 consecutive days, AN-214 0.2 mg/kg or equivalent molar dose of AN-216, FIG. 7

Q: Which results are given for `CNCCC=C1c2ccccc2CCc2ccccc21` [nortriptyline]?
A: latency of response to heat (Male Balb-c mice; p.o. 0.25 mg/kg nortriptyline or equimolar conjugate (0.32 mg/kg), 4 hours following treatment, vs untreated mice, FIG. 2A): increased significantly the latency of response compared to untreated mice; latency of response to heat, onset (Male Balb-c mice; p.o. 0.5 mg/kg nortriptyline, time course, vs vehicle, FIG. 2B): significant latency, (compared to vehicle treated animals), after 4 hours only; latency of response to heat (Male Balb-c mice; single p.o. dose, 0.5 mg/kg nortriptyline or equimolar dose of conjugate, two hours after administration, FIG. 1, 0.5 mg/kg): significantly less effective; also recorded: did not differ significantly (p>0.05) from control mice; latency of response to heat (Male Balb-c mice; single p.o. dose, 4.5 mg/kg nortriptyline or equimolar dose of conjugate, two hours after administration, vs vehicle, p<0.05, FIG. 1): significant delay in the response compared to control mice

Q: Which results are given for `CNCCC(Oc1ccc(C(F)(F)F)cc1)c1ccccc1` (centres unmarked) [fluoxetine]?
A: antinociceptive effect (latency to heat) during repeated treatment (Male Balb-c mice; repeated oral treatment daily for 11 days, fluoxetine 10 mg/kg or equimolar conjugate, FIGS. 5B-E): significantly better antinociceptive effect compared to untreated animals; response to heat sensation prior to daily treatment (Male Balb-c mice; repeated oral treatment daily for 11 days, fluoxetine 10 mg/kg or equimolar conjugate, tested at days 3, 7, 9 and 11, vs vehicle, FIG. 5A): A delay was noted only on day 11; oedema response in rats (Wistar rats): previously shown to reduce oedema response in rats

Q: Which “latency in response to heat sensation” value (Male Balb-c mice; GABA 2.39 mg/kg, >10-folds higher dose than the conjugate, FIG. 6) does the source give for `NCCCC(=O)O` [GABA, γ-aminobutyric acid] here?
A: had no activity

Q: What about the “antinociceptive activity (latency to heat)” value (“antinociceptive activity” below) (Male Balb-c mice; GABA orally for 5 consecutive days, three different doses, FIG. 8) of the same compound?
A: No antinociceptive activity was detected

Q: With `Cl.NCCCC(=O)OCOC(=O)CCCN` [AN-214, 4-Amino-butyric acid 4-amino-butyryloxymethyl ester dihydrochloride] as the compound, how does the “antinociceptive activity” value (Male Balb-c mice; [1]) read?
A: no antinociceptive activity was detected

Q: With “2-Propyl-pentanoic acid (valproic acid) 4-aminobutyryloxymethyl ester hydrochloride [AN-216]” as the compound, how does the “antinociceptive activity” value (Male Balb-c mice; [1]) read?
A: no antinociceptive activity was detected

Reference: patent US8377990B2, “Conjugates comprising a psychotropic drug or a GABA agonist and an organic acid and their use in treating pain and other CNS disorders” (Ramot at Tel-Aviv University Ltd., priority 2006, dated 2013)
